From patent US20250289842A1, “Processes for Making NAG-25, a Carbohydrate Targeting Moiety, and its Intermediates” (AMGEN INC., priority 2022, published 2025)

Test: High Throughput Experimentation (HTE) solubility screen, solvent/heptane mixtures for crystallization
Format: physicochemical
Settings: 20° C., 2-MeTHF
Experimental: A High Throughput Experimentation (HTE) solubility screen was conducted to determine the solvent/anti-solvent combination for the crystallization and align the reaction solvent with the crystallization solvent. Solubility studies of t-Butyl Core at 20° C. were conducted for various percentages of heptane. […] The solubility screen pointed to MTBE/heptane being one example of a useful solvent mixture for crystallization because of its gradual solubility curve.

solubility of t-Butyl Core (MIBK or IPAc with 80% heptane): 50 mg/mL | solubility of t-Butyl Core (MIBK or IPAc with 90% heptane): 10 mg/mL
SMILES: CC(C)(C)OC(=O)CC[C@H](NC(=O)CC[C@H](NC(=O)OCc1ccccc1)C(=O)OC(C)(C)C)C(=O)OC(C)(C)C [t-Butyl Core]
